Reference: patent US20180206489A1, “REPELLENT EFFECTIVE AGAINST ANOPHELES GAMBIAE” (Simon Fraser University, priority 2014, published 2018)
“Also recorded” adds a separate entry of the source.

How the values were obtained:
Anopheles gambiae [1] = test: Behavioural olfactometer assay with human odor source protected by chemical and alternate plant (honey) odor source; format: in vivo; conditions: for repelling efficacy, DEET vs 3c{3,6}: 0.1% solution; for total experiment time (time in the proximity of the human odor source) vs unprotected control / probe time (time on the human odor source) vs unprotected control / number of probe attempts at the human odor source vs unprotected control: 1% chemical on mesh over human odor, P<0.05; for total experiment time (time in the proximity of the human odor source) vs unprotected control: FIG. 5A; for probe time (time on the human odor source) vs unprotected control: FIG. 5B; for number of probe attempts at the human odor source vs unprotected control: FIG. 5C
Protocol: The olfactometer procedure and materials used in this study are similar to those employed by Zappia and Roitberg (2012) Energy-state dependent responses of Anopheles gambiae (Diptera: Culicidae) to simulated bednet-protected hosts. J. Vector Ecol. 37 (1): 173-8, herein incorporated by reference in its entirety. The behavioral assay was conducted in a custom-made glass olfactometer tube (145 cm long, 17 cm diameter) (FIG. 2). A mosquito release chamber was located on one side of the tube and consisted of a small tube with a gate attached separating the mosquito from the experiment arena. A small sac (10 cm×3 cm in diameter) made of mesh (Onsight equipment insecticide free hiker's mosquito shelter) was positioned 60 cm from the end of the release chamber. The mesh sac was immersed in the treatment compound immediately before trials and allowed to dry before the trial began. The sac contained human odor in the form of a sock (Secret brand, nylon) conditioned through 30 minutes of strenuous exercise and incubated at 28° C. and 80% RH for 24 hours before use. This sock was tested to ensure it was attractive to mosquitoes at the beginning of each trial day (by placing it in a non-experimental colony cage and observing whether females in the cage would seek it out to probe at it) and replaced every 5 days. A breathing tube was also attached to the human odor/chemical complex that allowed a one-way flow of exhaled carbon dioxide into the arena through the sock to make the human odor more attractive to A. gambiae. Carbon dioxide was exhaled into this tube once every 15 seconds during trials. An odor-producing sugar source was located 73 cm from the human odor/chemical complex. This consisted of a cotton ball impregnated with approximately 5 g of honey (Kidd Bros, Alfalfa Clover). The ball was suspended on a metal stage from the top of the olfactometer tube. This gave the mosquito an alternative during trials from seeking the human odor source. At the opposite end of the tube from the release gate was an air source pumping a one-way source of carbon-filtered air into the olfactometer arena flowing from the sugar source to the human odor to the release gate at a rate of 0.025 L/s. The olfactometer was rinsed daily with acetone and water to minimize residual odors. A 2×5 factorial design was used with solvent type and chemical as factors. The solvent types tested were a 1:1 and 1:5 ratio of isopropyl alcohol to water. Two different solvent types were assessed to determine the lowest ratio of alcohol to water that would be effective, since a lower concentration of alcohol is both more cost effective and practical in the field. […] In addition, we tested DEET™ as a positive control compound. Two concentrations of DEET™ and 3c{3,6} (0.1% and 1%) and a control were assessed for each solvent consisting of the solvent without the active ingredient (0% concentration). Female A. gambiae (4-7 days old, not previously blood-fed, and without a visibly swollen abdomen, wing size 2.93 mm-3.49 mm) were starved for 24 hours before assays. All assays were run under dim red light (1.79 μmol photons/(s×m^2)) in the colony chamber 1-5 hours after darkness since this is the period in which blood-seeking behaviour in females is highest. Mosquitoes were allowed to acclimate in the release chamber for 3 minutes before trials began. After 3 minutes, the release gate was opened. […] When the mosquito entered the arena, timing began. During trials, the olfactometer design was such that the mosquito encountered the human odor/chemical first, followed by the sugar odor source. The experiment arena consisted of the area in the olfactometer that was placed in front of the plant odor source, relative to the release point of the mosquito. Trials ended when the mosquito landed anywhere in the arena and rested for 5 minutes or flew to the plant sugar source. […]

Anopheles gambiae [2] = test: Electroantennogram (EAG) screening assay on female antennae
Protocol: EAG recordings were obtained using a Combi Probe (Syntech, Kirchzarten, Germany) fitted with glass capillary Ag/AgCl electrodes, filled with insect Ringer solution. Fine, tapered capillaries were prepared on a Gravipull-2 capillary puller (Kation Scientific, Minneapolis, USA). Data were recorded with an IDAC-4 data acquisition system (Syntech), interfaced with a computer that had the software EAGpro (version 1.1, Syntech). Stimuli were dissolved in hexane […] and applied to small filter papers (Whatman No. 1) (10 μL). This gave doses on the filter paper of 1 μg, 10 μg and 100 μg. After evaporation of the solvent, the filter papers were placed in a Pasteur pipette. Pipettes were attached to a CS-55 stimulus controller ([…]) that delivered a pulse of air (30 mL/s) through the pipette and into a metal stimulus delivery tube (Ø 0.95 cm×18 cm) that dispensed a continuous airflow (25 mL/s) and was positioned approximately 2 cm from the mosquito antenna so that the airflow contacted the entire antenna. The duration of the pulse was 0.7 s. Screening took place on A. gambiae females 4-7 days post-eclosion. Females were starved (sugar water replaced with distilled water in the colony cage) for 24 hours before trials to ensure a standard hunger level in test subjects. Mosquitoes were prepared for trials in this manner: the head of the mosquito was excised and the base of the head was connected to the ground electrode. The tip of the distal segment of one antenna was cut and inserted it into the recording electrode. Only mosquitoes producing a steady baseline reading were used for trials. All readings were taken within 10 minutes of the time the mosquito was prepared and each female was tested only once with one full chemical series. Trials included human scent emanating from a sock (Tradition brand, nylon) previously conditioned through 30 minutes of vigorous exercise by a volunteer and incubated at 28° C. and 80% RH for 24 hours. […] For trials, the sock was cut into 0.5 cm×3 cm strips and put into the pipette dispensing the odor pulses. Odors in each run were presented to the mosquito in the following order with at least 25 seconds between odor pulses: no odor, no odor, 10 μg DEETTM, 10 μg chemical, no odor, no odor, human scent only, human scent with 1 μg chemical, human scent with 10 μg chemical, human scent with 100 μg chemical, human scent only, no odor, no odor, 10 μg DEETTM. Several of these pulses served as internal controls to ensure that the mosquito antenna was still responding to the stimuli, or the human odor was detectable to the mosquito. One of the pulses, such as air pulse, produced a response, but it is smaller than that of odor or of presented compounds, seven […]. The DEETTM pulses were included as a reference. The pulses of interest were those containing both the human odor and chemical of interest in various concentrations. 9 runs were completed for each chemical tested and recorded the amplitude of the peaks produced for each odor pulse. […] All data were analyzed in R version 2.15.0 (R Development Core Team, 2012). […] EAG activity values were analyzed using a generalized least squares ANOVA with a variance structure that accounts for measurements within runs being more similar than measurements between runs. […] Behavioural assay data was analyzed using a MANOVA with solvent type and chemical (including concentration) as factors. […]

[3] = tested on: olfactory receptor neurons on the maxillary palps of A. gambiae; conditions: cited from earlier work
Culex quinquefasciatus = conditions: cited from earlier work
Aedes aegypti = conditions: cited from earlier work
[4] = tested on: neurons in the sacculus on the antenna that express an ionotropic receptor (IR40a); conditions: cited from earlier work

Compound	repelling efficacy, DEET vs 3c{3,6} (Anopheles gambiae [1])	total experiment time (time in the proximity of the human odor source) vs unprotected control (Anopheles gambiae [1])	probe time (time on the human odor source) vs unprotected control (Anopheles gambiae [1])	number of probe attempts at the human odor source vs unprotected control (Anopheles gambiae [1])	behavioural response compared with DEET (Anopheles gambiae [1]; 1% solution)	repellent efficacy against A. gambiae (overall conclusion) (Anopheles gambiae [1]; in vivo)	depolarization response of compound by itself (Anopheles gambiae [2]; 100 μg dose, FIG. 6)	air-corrected antennal depolarization, chemical alone (without the human odor) (Anopheles gambiae [2]; FIG. 4, difference not significant (P>0.05))	EAG activity: response to repellent/human odor source combination compared to DEET reference peak (Anopheles gambiae [2]; human scent with 1 μg, 10 μg, 100 μg chemical (pooled), FIG. 3)	inhibition of olfactory receptor neurons (decreased response to 1-octen-3-ol) [3]	direct detection of DEET (Culex quinquefasciatus)	inhibition of neuron response to 1-octen-3-ol (Culex quinquefasciatus)	enhancement or inhibition of antennal responses to human scent (Anopheles gambiae [2]; compound + human scent)	antennal (olfactory) response to compound by itself (Anopheles gambiae [2]; compound alone, EAG)	direct detection of DEET (Aedes aegypti)	inhibition of neuron response to 1-octen-3-ol (Aedes aegypti)	stimulation of IR40a-expressing sacculus neurons [4]
C=CCOc1ccc(OCCC)cc1 [3c{3,6}, 1-allyloxy-4-propoxybenzene]	a 0.1% solution of DEET™ was more effective	spent less time in the proximity of the human odor source	spent less time on the human odor source	attempted to probe less	comparable response in mosquitoes to a 1% solution of DEET™	effective repellent for A. gambiae; also recorded: effective repellent against A. gambiae	one of the largest depolarization responses by itself	larger air-corrected antennal depolarization than the other compounds tested	largest activity of all the compounds tested								
CCN(CC)C(=O)c1cccc(C)c1 [DEET™, N—N-diethyl-meta-toluamide]	more effective at repelling A. gambiae individuals than a 0.1% solution of 3c{3,6}	spent less time in the proximity of the human odor source	spent less time on the human odor source	attempted to probe less						inhibits olfactory receptor neurons on the maxillary palps of A. gambiae	detect DEET™ directly	this inhibition was not detected	did not affect the responses to the human scent	responded; also recorded: elicited olfactory responses by itself	detect DEET™ directly	this inhibition was not detected	stimulate neurons in the sacculus on the antenna of Drosophila melanogaster
